Activity calls are given as the source filed them. The calls are words filed in the database; no cut-off is given here.

One assay addresses T1, Chymase (Homo sapiens) (UniProt P23946).
T1 sequence (whole entry): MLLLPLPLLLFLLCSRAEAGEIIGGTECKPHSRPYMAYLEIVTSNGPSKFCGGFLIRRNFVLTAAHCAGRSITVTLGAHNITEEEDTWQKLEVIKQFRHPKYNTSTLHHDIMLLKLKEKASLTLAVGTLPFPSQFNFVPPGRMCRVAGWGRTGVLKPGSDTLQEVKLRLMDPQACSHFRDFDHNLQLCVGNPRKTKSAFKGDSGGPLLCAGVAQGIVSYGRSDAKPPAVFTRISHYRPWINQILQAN
Description: Second order rate constant for the inhibition of human skin chymase.

Assay [1] has as its target T2, Cathepsin G (Homo sapiens) (UniProt P08311).
T2 sequence (whole entry): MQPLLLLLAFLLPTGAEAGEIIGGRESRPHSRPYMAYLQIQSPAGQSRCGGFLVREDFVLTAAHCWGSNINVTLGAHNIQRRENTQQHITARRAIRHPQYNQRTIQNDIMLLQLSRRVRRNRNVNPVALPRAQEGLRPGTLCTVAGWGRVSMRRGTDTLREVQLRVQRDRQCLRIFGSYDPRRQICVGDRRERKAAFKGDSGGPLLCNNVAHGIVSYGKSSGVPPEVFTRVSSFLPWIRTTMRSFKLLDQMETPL
Description: Second order rate constant for the inhibition of leukocyte Cathepsin G (Cat G).

With `Nc1ccc2nc(SCN3C(=O)C(Cc4ccccc4)N(Cc4ccccc4)S3(=O)=O)sc2c1` (configuration not stated), the values for the K inact/Ki (at Chymase (Homo sapiens); in assay [1]) were 14700 M⁻¹ s⁻¹ and 15700 M⁻¹ s⁻¹, respectively.
Taken in the same sequence, the figures for `O=C(O)c1ccc(S(=O)(=O)CN2C(=O)C(Cc3ccccc3)N(Cc3ccccc3)S2(=O)=O)cc1` (configuration not stated) were 186000 M⁻¹ s⁻¹ and 66700 M⁻¹ s⁻¹.
On to `CC(=O)OCN1C(=O)C(Cc2ccccc2)N(Cc2ccccc2)S1(=O)=O` (configuration not stated), for which the figures for the K inact/Ki (at Chymase (Homo sapiens); in assay [1]) were 21800 M⁻¹ s⁻¹ and 10600 M⁻¹ s⁻¹, respectively.
Taken in the same sequence, the figures for `O=C1C(Cc2ccccc2)N(Cc2ccccc2)S(=O)(=O)N1CS(=O)(=O)c1ccccc1` (configuration not stated) were 12500 M⁻¹ s⁻¹ and 11200 M⁻¹ s⁻¹.
Turning to `O=C1C(Cc2ccccc2)N(Cc2ccccc2)S(=O)(=O)N1CSc1nc2ccccc2o1` (configuration not stated), the K inact/Ki at Chymase (Homo sapiens) came out at 5430 M⁻¹ s⁻¹; in assay [1], 17100 M⁻¹ s⁻¹.
Regarding `O=C(OCN1C(=O)C(Cc2ccccc2)N(Cc2ccccc2)S1(=O)=O)C(O)c1ccccc1` (configuration not stated), the K inact/Ki is 39900 M⁻¹ s⁻¹ at Chymase (Homo sapiens) and 12300 M⁻¹ s⁻¹ in assay [1].
For `O=C1C(Cc2ccccc2)N(Cc2ccccc2)S(=O)(=O)N1CSc1nnc(-c2ccccc2)o1` (configuration not stated) the same measures were 5090 M⁻¹ s⁻¹ and 490 M⁻¹ s⁻¹.
Consider `O=C(O)CC(=O)OCN1C(=O)C(Cc2ccccc2)N(Cc2ccccc2)S1(=O)=O` (configuration not stated), for which the figures for the K inact/Ki (on Chymase (Homo sapiens); in assay [1]) were 45700 M⁻¹ s⁻¹ and 22700 M⁻¹ s⁻¹, respectively.
For `CC(O)C(=O)OCN1C(=O)C(Cc2ccccc2)N(Cc2ccccc2)S1(=O)=O` (configuration not stated) the same measures were 38500 M⁻¹ s⁻¹ and 12700 M⁻¹ s⁻¹.
In the case of `O=C(O)CCS(=O)(=O)CN1C(=O)C(Cc2ccccc2)N(Cc2ccccc2)S1(=O)=O` (configuration not stated), the K inact/Ki at Chymase (Homo sapiens) was 23400 M⁻¹ s⁻¹; in assay [1] it was 17400 M⁻¹ s⁻¹.
`CN1C(Cc2ccccc2)C(=O)N(CSc2nc3ccccc3o2)S1(=O)=O` (configuration not stated): the K inact/Ki stood at 6250 M⁻¹ s⁻¹ at Chymase (Homo sapiens) and 430 M⁻¹ s⁻¹ in assay [1].
For `CS(=O)(=O)CN1C(=O)C(Cc2ccccc2)N(Cc2ccccc2)S1(=O)=O` (configuration not stated) the same measures were 4600 M⁻¹ s⁻¹ and 8500 M⁻¹ s⁻¹.
As to `O=C(CO)OCN1C(=O)C(Cc2ccccc2)N(Cc2ccccc2)S1(=O)=O` (configuration not stated), the figures for the K inact/Ki (at Chymase (Homo sapiens); in assay [1]) were 30500 M⁻¹ s⁻¹ and 12800 M⁻¹ s⁻¹, respectively.
On to `O=C(O)c1cccc(S(=O)(=O)CN2C(=O)C(Cc3ccccc3)N(Cc3ccccc3)S2(=O)=O)c1` (configuration not stated), for which the K inact/Ki at Chymase (Homo sapiens) amounted to 13500 M⁻¹ s⁻¹; in assay [1], 20700 M⁻¹ s⁻¹.
Taken in the same sequence, the figures for `O=C(O)CS(=O)(=O)CN1C(=O)C(Cc2ccccc2)N(Cc2ccccc2)S1(=O)=O` (configuration not stated) were 10800 M⁻¹ s⁻¹ and 25200 M⁻¹ s⁻¹.
Taken in the same sequence, the figures for `O=C(O)c1ccccc1S(=O)(=O)CN1C(=O)C(Cc2ccccc2)N(Cc2ccccc2)S1(=O)=O` (configuration not stated) were “inactive” and 350 M⁻¹ s⁻¹.

The values are drawn from ChEMBL document CHEMBL1131819, “Human chymase inhibitors based on the 1,2,5-thiadiazolidin-3-one 1,1 dioxide scaffold” (Bioorg Med Chem Lett, 1999).
